SMILES strings stand for the structures.

Holding throughout (assay): Competitive isoTOP-ABPP in situ (fragment-treated cells)
Holding throughout (type): cell-based

Assay [1] has as its target T1, cysteines in MDA-MB-231 and Ramos cells (Homo sapiens, UniProt Q9NP73).
T1 sequence (Q9NP73 1-1137): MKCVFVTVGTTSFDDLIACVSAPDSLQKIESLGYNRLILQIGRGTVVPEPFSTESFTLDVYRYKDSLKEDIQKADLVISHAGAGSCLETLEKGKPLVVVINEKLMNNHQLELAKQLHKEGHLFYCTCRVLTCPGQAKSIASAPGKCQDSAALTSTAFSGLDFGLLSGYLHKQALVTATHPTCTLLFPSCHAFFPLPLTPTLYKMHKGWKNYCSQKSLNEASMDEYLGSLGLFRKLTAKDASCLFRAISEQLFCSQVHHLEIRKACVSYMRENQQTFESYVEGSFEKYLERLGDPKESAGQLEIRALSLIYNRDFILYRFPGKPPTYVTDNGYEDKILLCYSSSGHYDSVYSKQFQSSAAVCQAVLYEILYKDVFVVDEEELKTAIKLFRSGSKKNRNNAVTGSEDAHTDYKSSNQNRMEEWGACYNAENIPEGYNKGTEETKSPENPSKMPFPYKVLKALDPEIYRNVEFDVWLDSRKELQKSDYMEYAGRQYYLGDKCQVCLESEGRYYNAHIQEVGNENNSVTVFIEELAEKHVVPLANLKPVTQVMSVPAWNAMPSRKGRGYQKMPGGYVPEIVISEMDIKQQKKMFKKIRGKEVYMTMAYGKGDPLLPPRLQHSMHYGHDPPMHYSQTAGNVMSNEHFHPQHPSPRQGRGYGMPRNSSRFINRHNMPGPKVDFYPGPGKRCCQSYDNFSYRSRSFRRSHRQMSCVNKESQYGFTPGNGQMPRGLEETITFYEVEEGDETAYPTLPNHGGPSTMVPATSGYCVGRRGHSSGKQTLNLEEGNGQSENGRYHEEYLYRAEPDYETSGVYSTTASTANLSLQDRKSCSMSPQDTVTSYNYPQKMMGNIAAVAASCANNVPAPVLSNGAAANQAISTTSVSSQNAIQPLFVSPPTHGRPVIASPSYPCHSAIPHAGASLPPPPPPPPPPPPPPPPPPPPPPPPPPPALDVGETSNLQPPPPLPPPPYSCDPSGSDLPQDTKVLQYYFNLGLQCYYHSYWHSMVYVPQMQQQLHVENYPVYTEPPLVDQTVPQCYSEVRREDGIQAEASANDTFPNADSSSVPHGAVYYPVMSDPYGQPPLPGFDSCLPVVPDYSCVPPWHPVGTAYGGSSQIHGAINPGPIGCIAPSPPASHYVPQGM

The target of assay [2] is cysteines in MDA-MB-231 and Ramos cells (Homo sapiens, UniProt Q8NDH3).
Assay [3] addresses T2, cysteines in MDA-MB-231 and Ramos cells (Homo sapiens, UniProt Q9P0J1).
T2 sequence (Q9P0J1 72-537): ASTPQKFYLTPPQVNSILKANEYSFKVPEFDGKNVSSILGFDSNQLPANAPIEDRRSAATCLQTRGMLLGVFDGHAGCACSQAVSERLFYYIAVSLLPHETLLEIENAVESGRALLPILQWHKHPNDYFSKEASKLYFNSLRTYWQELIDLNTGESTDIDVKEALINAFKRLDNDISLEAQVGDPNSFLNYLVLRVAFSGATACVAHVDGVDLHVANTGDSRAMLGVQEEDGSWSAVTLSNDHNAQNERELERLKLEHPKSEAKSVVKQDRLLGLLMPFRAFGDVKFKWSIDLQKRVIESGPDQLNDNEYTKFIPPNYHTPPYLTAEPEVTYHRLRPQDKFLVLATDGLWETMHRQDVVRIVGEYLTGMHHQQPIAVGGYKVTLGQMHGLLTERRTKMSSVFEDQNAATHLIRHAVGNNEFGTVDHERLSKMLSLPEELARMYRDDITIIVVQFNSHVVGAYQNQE

Assay [4] has as its target cysteines in MDA-MB-231 and Ramos cells (Homo sapiens, UniProt Q9Y676).
In assay [5] the target is T3, cysteines in MDA-MB-231 and Ramos cells (Homo sapiens, UniProt Q5JPI3).
T3 sequence (Q5JPI3 1-329): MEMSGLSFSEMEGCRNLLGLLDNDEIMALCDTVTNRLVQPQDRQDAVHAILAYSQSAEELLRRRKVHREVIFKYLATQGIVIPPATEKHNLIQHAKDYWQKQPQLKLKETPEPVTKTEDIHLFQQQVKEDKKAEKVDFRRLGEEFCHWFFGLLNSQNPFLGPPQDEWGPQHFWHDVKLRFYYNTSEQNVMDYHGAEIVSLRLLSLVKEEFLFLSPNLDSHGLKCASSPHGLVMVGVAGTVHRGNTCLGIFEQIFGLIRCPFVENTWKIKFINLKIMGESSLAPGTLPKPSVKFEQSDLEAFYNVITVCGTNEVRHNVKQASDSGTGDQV

Assay [6] has as its target cysteines in MDA-MB-231 and Ramos cells (Homo sapiens, UniProt P14635).

Chain of cysteines in MDA-MB-231 and Ramos cells (Homo sapiens, UniProt Q8NDH3) (Q8NDH3 whole entry): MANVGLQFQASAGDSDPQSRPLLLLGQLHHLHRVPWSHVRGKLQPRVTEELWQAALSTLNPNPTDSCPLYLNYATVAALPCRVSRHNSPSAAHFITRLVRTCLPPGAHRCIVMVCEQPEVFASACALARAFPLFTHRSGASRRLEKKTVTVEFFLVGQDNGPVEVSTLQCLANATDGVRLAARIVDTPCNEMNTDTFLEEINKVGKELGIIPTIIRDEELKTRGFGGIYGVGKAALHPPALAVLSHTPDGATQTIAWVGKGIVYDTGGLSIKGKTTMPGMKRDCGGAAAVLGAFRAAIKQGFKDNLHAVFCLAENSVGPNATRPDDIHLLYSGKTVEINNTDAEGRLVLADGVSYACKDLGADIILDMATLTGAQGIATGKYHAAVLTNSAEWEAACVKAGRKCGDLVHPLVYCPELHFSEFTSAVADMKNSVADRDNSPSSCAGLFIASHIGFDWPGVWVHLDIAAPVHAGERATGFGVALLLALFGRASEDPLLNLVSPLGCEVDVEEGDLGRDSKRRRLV
Chain of cysteines in MDA-MB-231 and Ramos cells (Homo sapiens, UniProt P14635) (P14635 whole entry): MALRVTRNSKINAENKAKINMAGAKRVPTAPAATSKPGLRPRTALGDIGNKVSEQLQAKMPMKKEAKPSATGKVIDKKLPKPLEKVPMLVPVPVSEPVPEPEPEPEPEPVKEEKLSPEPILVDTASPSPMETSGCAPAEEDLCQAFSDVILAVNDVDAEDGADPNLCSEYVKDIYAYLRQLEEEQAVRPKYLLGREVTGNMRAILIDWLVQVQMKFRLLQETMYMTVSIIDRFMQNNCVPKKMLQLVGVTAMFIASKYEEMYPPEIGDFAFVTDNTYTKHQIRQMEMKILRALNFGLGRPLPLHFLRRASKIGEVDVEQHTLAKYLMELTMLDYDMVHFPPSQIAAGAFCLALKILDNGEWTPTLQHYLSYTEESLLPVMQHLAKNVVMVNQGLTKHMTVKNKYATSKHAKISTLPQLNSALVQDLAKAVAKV

For the molecule `COc1ccc2c(c1)CCCN2C(=O)CCl` [compound 2], the “isoTOP-ABPP reactivity Q9NP73_C86 ALG13” value in assay [1] (200 μM, insitu, 231) amounted to 20.0. The “isoTOP-ABPP reactivity Q8NDH3_C81 NPEPL1” value in assay [2] (200 μM, insitu, 231) turned out to be 20.0. For the same molecule, in assay [3] (200 μM, insitu, 231), the “isoTOP-ABPP reactivity Q9P0J1_C149 PDP1” value is given as 20.0. Also, in assay [4] (200 μM, insitu, 231), the “isoTOP-ABPP reactivity Q9Y676_C128 MRPS18B” value is listed as 10.2. For the same molecule, the “isoTOP-ABPP reactivity Q5JPI3_C308 C3orf38” value in assay [5] (200 μM, insitu, 231) was found to be 2.9.

Turning to `COc1ccc(C2CC(c3cccs3)=NN2C(=O)CCl)cc1` (centres unmarked) [compound 4], the “isoTOP-ABPP reactivity Q9NP73_C86 ALG13” value in assay [1] (100 μM in situ 231) is 20.0. The “isoTOP-ABPP reactivity Q8NDH3_C81 NPEPL1” value in assay [2] (100 μM in situ 231) was found to be 20.0. Further, the “isoTOP-ABPP reactivity Q9Y676_C128 MRPS18B” value in assay [4] (100 μM in situ 231) was found to be 2.3.

Turning to `COc1cc2c(cc1OC)CN(C(=O)CCl)CC2` [compound 8], the “isoTOP-ABPP reactivity Q8NDH3_C81 NPEPL1” value in assay [2] (200 μM, insitu, 231) came to 20.0. Further, in assay [4] (200 μM, insitu, 231), the “isoTOP-ABPP reactivity Q9Y676_C128 MRPS18B” value worked out at 1.0.

On to `O=C(CCl)N1CCC(Cc2ccccc2)CC1` [compound 9], for which the “isoTOP-ABPP reactivity P14635_C238 CCNB1” value in assay [6] (200 μM, insitu, 231) was 3.7.

In the case of `O=C(CCl)N1CCN(S(=O)(=O)c2ccccc2F)CC1` [compound 10], the “isoTOP-ABPP ratio, cysteine P14635_C238” value in assay [6] (200 μM, insitu, 231) came to 6.7. Besides, the “isoTOP-ABPP ratio, cysteine Q8NDH3_C81” value in assay [2] (200 μM, insitu, 231) is 5.7. Moreover, the “isoTOP-ABPP ratio, cysteine Q9P0J1_C149” value in assay [3] (200 μM, insitu, 231) is reported as 18.0. Further, the “isoTOP-ABPP ratio Q9Y676_C128” value in assay [4] (200 μM, insitu, 231) turned out to be 2.9.

In the case of `Cn1cc(S(=O)(=O)N2CCOCC2)cc1C(=O)NC(=O)CCl` [compound 11], the “isoTOP-ABPP ratio, cysteine P14635_C238” value in assay [6] (100 μM in situ 231) amounted to 0.7. The “isoTOP-ABPP ratio Q9NP73_C86” value in assay [1] (100 μM in situ 231) is 0.7. Also, the “isoTOP-ABPP ratio, cysteine Q9P0J1_C149” value in assay [3] (100 μM in situ 231) is reported as 1.4. Also, the “isoTOP-ABPP ratio Q9Y676_C128” value in assay [4] (100 μM in situ 231) turned out to be 0.8. Further, in assay [5] (100 μM in situ 231), the “isoTOP-ABPP ratio, cysteine Q5JPI3_C308” value is given as 1.0.

Turning to `O=C(CCl)NC(=O)NC12CC3CC(CC(C3)C1)C2` [compound 12], the “isoTOP-ABPP ratio, cysteine Q8NDH3_C81” value in assay [2] (200 μM, insitu, 231) is 20.0. The “isoTOP-ABPP ratio, cysteine Q9P0J1_C149” value in assay [3] (200 μM, insitu, 231) was found to be 18.5. In assay [4] (200 μM, insitu, 231), the “isoTOP-ABPP ratio Q9Y676_C128” value amounted to 1.4.

For the molecule `O=C(CCl)NCCc1c[nH]c2ccccc12` [compound 13], the “isoTOP-ABPP ratio, cysteine P14635_C238” value in assay [6] (200 μM, insitu, 231) is listed as 1.3; in assay [6] (200 μM, insitu, ramos) it was 1.5. Moreover, the “isoTOP-ABPP ratio Q9NP73_C86” value is recorded as 0.9 in assay [1] (200 μM, insitu, 231) and 1.4 in assay [1] (200 μM, insitu, ramos). The “isoTOP-ABPP ratio, cysteine Q5JPI3_C308” value in assay [5] (200 μM, insitu, 231) is listed as 1.1; in assay [5] (200 μM, insitu, ramos), 1.7.

Consider `O=C(CCl)NC12CC3CC(CC(C3)C1)C2` [compound 21], for which, in assay [2] (200 μM, insitu, 231), the “isoTOP-ABPP ratio, cysteine Q8NDH3_C81” value came out at 1.6. Further, the “isoTOP-ABPP ratio Q9Y676_C128” value in assay [4] (200 μM, insitu, 231) amounted to 1.5. Further, the “isoTOP-ABPP ratio, cysteine Q5JPI3_C308” value in assay [5] (200 μM, insitu, 231) is 0.9.

Take `CC(C)CCOCCNC(=O)CCl` [compound 27]: the “isoTOP-ABPP ratio Q9NP73_C86” value in assay [1] (200 μM, insitu, 231) is given as 0.4. Besides, the “isoTOP-ABPP ratio Q9Y676_C128” value in assay [4] (200 μM, insitu, 231) stood at 1.0. Also, the “isoTOP-ABPP ratio Q5JPI3_C308” value in assay [5] (200 μM, insitu, 231) was 0.7.

Consider `O=C(CCl)N1CCN(CC(=O)N2CCOCC2)CC1` [compound 29], for which the “isoTOP-ABPP ratio Q9NP73_C86” value in assay [1] (200 μM, insitu, ramos) worked out at 2.0. The “isoTOP-ABPP ratio Q9P0J1_C149” value in assay [3] (200 μM, insitu, ramos) was found to be 1.0. Further, the “isoTOP-ABPP ratio Q5JPI3_C308” value in assay [5] (200 μM, insitu, ramos) is recorded as 1.3.

For `C=CC(=O)N(Cc1cccnc1)c1cc(C(F)(F)F)cc(C(F)(F)F)c1` [compound 31], the “isoTOP-ABPP ratio Q8NDH3_C81” value in assay [2] (200 μM, insitu, 231) turned out to be 1.0.

Consider `C=CC(=O)Nc1cc(F)c(N2CCN(C(=O)OC(C)(C)C)CC2)c(F)c1` [compound 38], for which, in assay [6] (200 μM, insitu, 231), the “isoTOP-ABPP ratio P14635_C238” value was found to be 1.8. Further, the “isoTOP-ABPP ratio Q9NP73_C86” value in assay [1] (200 μM, insitu, 231) came to 1.3. Further, the “isoTOP-ABPP ratio Q8NDH3_C81” value in assay [2] (200 μM, insitu, 231) was found to be 2.0. Further, in assay [3] (200 μM, insitu, 231), the “isoTOP-ABPP ratio Q9P0J1_C149” value came out at 0.9. Besides, the “isoTOP-ABPP ratio Q9Y676_C128” value in assay [4] (200 μM, insitu, 231) is listed as 1.0.

In the case of `Cc1ccc(C=C(C#N)C(=O)NCCN2CCOCC2)cc1` [compound 41], in assay [6] (200 μM, insitu, 231), the “isoTOP-ABPP ratio P14635_C238” value is reported as 0.5. In addition, the “isoTOP-ABPP ratio Q9NP73_C86” value in assay [1] (200 μM, insitu, 231) is on record as 0.5. In assay [3] (200 μM, insitu, 231), the “isoTOP-ABPP ratio Q9P0J1_C149” value is listed as 20.0. For the same molecule, the “isoTOP-ABPP ratio Q5JPI3_C308” value in assay [5] (200 μM, insitu, 231) was 0.7.

For `CC1CCc2ccccc2N1C(=O)CCl` (centres unmarked) [compound 45], the “isoTOP-ABPP ratio Q9NP73_C86” value in assay [1] (200 μM, insitu, 231) came out at 20.0. Further, the “isoTOP-ABPP ratio Q9Y676_C128” value in assay [4] (200 μM, insitu, 231) is 2.0.

As for `O=C(CCl)Nc1cccc2ncccc12` [compound 51], in assay [1] (200 μM, insitu, 231), the “isoTOP-ABPP ratio Q9NP73_C86” value is given as 1.3. Moreover, the “isoTOP-ABPP ratio Q9P0J1_C149” value in assay [3] (200 μM, insitu, 231) worked out at 0.8. Moreover, the “isoTOP-ABPP ratio Q9Y676_C128” value in assay [4] (200 μM, insitu, 231) was 1.0.

The values are drawn from patent US10670605B2, “Cysteine reactive probes and uses thereof” (The Scripps Research Institute, priority 2015, dated 2020).
